According to ChEMBL document CHEMBL1153178, “Design and synthesis of a hybrid potentiator-corrector agonist of the cystic fibrosis mutant protein DeltaF508-CFTR” (Bioorg Med Chem Lett, 2010):
Activity calls are given as the source filed them. The rule behind the calls is not given here.

The molecules below were run on Cystic fibrosis transmembrane conductance regulator (Homo sapiens), P13569 [F508del] (assay: Agonist activity at human CFTR deltaF508 mutant expressed in rat FRT cells assessed as forskolin-stimulated […] by patch-clamp method).
Chain of Cystic fibrosis transmembrane conductance regulator (Homo sapiens), P13569 [F508del] (P13569 as listed by the source): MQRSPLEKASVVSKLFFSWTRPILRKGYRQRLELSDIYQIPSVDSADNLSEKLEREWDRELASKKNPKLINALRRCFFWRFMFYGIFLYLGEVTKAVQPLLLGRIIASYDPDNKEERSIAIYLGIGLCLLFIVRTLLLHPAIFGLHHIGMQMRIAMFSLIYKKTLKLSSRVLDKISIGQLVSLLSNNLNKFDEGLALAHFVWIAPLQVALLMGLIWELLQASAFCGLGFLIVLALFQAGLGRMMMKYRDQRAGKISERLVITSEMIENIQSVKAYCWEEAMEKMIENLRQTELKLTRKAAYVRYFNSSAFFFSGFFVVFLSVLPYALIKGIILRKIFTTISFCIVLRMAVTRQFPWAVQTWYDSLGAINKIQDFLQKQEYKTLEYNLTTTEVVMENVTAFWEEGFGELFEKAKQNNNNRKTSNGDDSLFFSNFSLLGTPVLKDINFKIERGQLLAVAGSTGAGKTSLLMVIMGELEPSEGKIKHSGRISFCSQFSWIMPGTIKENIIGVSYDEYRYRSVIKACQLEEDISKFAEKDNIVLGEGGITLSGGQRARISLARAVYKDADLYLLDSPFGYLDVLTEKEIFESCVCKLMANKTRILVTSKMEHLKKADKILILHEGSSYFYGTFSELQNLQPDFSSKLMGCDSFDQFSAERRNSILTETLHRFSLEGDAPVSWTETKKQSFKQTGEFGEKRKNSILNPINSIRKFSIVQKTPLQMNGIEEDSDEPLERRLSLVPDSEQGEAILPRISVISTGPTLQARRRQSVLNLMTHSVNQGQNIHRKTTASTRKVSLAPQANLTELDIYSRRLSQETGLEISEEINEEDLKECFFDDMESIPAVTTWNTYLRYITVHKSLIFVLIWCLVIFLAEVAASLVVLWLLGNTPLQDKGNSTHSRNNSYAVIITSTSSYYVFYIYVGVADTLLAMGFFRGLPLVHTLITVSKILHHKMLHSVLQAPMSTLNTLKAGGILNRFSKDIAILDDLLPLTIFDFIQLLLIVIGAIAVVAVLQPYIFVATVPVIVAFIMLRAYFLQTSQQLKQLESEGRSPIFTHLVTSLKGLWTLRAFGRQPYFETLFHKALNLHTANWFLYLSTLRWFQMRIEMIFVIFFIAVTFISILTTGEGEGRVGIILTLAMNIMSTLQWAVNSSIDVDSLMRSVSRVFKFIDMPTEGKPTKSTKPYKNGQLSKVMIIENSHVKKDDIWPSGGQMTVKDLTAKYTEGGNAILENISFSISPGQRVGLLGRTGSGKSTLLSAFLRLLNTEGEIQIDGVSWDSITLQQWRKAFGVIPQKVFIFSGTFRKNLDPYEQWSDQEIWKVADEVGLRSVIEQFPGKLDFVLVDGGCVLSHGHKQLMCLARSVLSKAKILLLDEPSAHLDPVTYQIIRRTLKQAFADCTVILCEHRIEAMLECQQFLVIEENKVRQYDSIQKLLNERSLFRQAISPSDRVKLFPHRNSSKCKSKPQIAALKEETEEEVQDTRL
Format: functional, cell-based
For CN(C(=O)Cc1c[nH]c2ccccc12)[C@H](C(=O)Nc1ccc(CO)cc1)c1ccccc1, the Activity was “Active”. In the case of Cc1nc(NC(=O)c2ccccc2)sc1-c1csc(Nc2cc(Cl)ccc2OCCOCCOCC(=O)OCc2ccc(NC(=O)[C@H](c3ccccc3)N(C)C(=O)Cc3c[nH]c4ccccc34)cc2)n1, the Activity is reported as “inactive”. Cc1nc(NC(=O)c2ccccc2)sc1-c1csc(Nc2cc(Cl)ccc2OCCOCCOCC(=O)O)n1 was tested, and the Activity was “Active”.
